The values that follow come from publication PMC8282492 (Journal of Ginseng Research, 2020).

The target in one assay is T1, human 14-3-3 ζ (Homo sapiens, UniProt P63104).
T1 sequence (P63104 1-245): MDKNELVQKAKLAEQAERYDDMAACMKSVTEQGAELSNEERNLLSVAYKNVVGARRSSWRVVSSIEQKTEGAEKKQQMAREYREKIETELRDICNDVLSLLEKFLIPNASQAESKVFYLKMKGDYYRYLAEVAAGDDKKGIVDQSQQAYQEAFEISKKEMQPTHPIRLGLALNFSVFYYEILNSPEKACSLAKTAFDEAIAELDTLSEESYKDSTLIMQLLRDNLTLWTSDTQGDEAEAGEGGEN
The assay can be described thus: BLI direct binding response of ginsenosides to immobilised 14-3-3 ζ. Particulars: compound concentration 271μM; Fig. 3A and B.

In assay [1] the target is T2, 14-3-3 ζ protein (human), P63104.
T2 chain: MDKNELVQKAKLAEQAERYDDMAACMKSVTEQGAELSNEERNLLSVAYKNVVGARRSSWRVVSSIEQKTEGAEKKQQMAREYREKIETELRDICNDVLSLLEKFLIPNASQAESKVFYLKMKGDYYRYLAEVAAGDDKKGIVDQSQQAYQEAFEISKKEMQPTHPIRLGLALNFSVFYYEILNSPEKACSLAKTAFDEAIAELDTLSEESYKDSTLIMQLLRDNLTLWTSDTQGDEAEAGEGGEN
The assay is described as follows: crystal structure. Particulars: remark: other sources report otherwise.

As to `CC(C)=CCC[C@](C)(O[C@@H]1O[C@H](CO)[C@@H](O)[C@H](O)[C@H]1O)[C@H]1CC[C@]2(C)[C@@H]1[C@H](O)C[C@@H]1[C@@]3(C)CC[C@H](O)C(C)(C)[C@@H]3CC[C@]12C` [CK, ginsenoside compound K], the “direct binding response to 14-3-3 ζ (BLI)” value (“direct binding response” for short) at human 14-3-3 ζ is “significant affinity”.
Take `CC(C)=CCC[C@](C)(O[C@@H]1O[C@H](CO)[C@@H](O)[C@H](O)[C@H]1O)[C@H]1CC[C@]2(C)[C@@H]1[C@H](O)C[C@@H]1[C@@]3(C)CC[C@H](O)C(C)(C)[C@@H]3[C@@H](O)C[C@]12C` [F1]: the “direct binding response” value on human 14-3-3 ζ was “barely interacted”.
Same read-out and setting: then `CC(C)=CCC[C@](C)(O)[C@H]1CC[C@]2(C)[C@@H]1[C@H](O)C[C@@H]1[C@@]3(C)CC[C@H](O)C(C)(C)[C@@H]3[C@@H](O)C[C@]12C` [PPT, 20(S)-protopanaxatriol], with “significant affinity”; and `CC(C)=CCC[C@](C)(O[C@@H]1O[C@H](CO[C@@H]2O[C@H](CO)[C@@H](O)[C@H](O)[C@H]2O)[C@@H](O)[C@H](O)[C@H]1O)[C@H]1CC[C@]2(C)[C@@H]1[C@H](O)C[C@@H]1[C@@]3(C)CC[C@H](O[C@@H]4O[C@H](CO)[C@@H](O)[C@H](O)[C@H]4O[C@@H]4O[C@H](CO)[C@@H](O)[C@H](O)[C@H]4O)C(C)(C)[C@@H]3CC[C@]12C` [Rb1], with “barely interacted”; and `CC(C)=CCC[C@](C)(O[C@@H]1O[C@H](CO)[C@@H](O)[C@H](O)[C@H]1O)[C@H]1CC[C@]2(C)[C@@H]1[C@H](O)C[C@@H]1[C@@]3(C)CC[C@H](O)C(C)(C)[C@@H]3[C@@H](O[C@@H]3O[C@H](CO)[C@@H](O)[C@H](O)[C@H]3O)C[C@]12C` [Rg1], with “significant affinity”.
Same read-out and setting: to `CC(C)=CCC[C@](C)(O)[C@H]1CC[C@]2(C)[C@@H]1[C@H](O)C[C@@H]1[C@@]3(C)CC[C@H](O)C(C)(C)[C@@H]3[C@@H](O[C@@H]3O[C@H](CO)[C@@H](O)[C@H](O)[C@H]3O)C[C@]12C` [Rh1] belongs “barely interacted”.
`CC(C)=CCC[C@](C)(O)[C@H]1CC[C@]2(C)[C@@H]1[C@H](O)C[C@@H]1[C@@]3(C)CC[C@H](O[C@@H]4O[C@H](CO)[C@@H](O)[C@H](O)[C@H]4O)C(C)(C)[C@@H]3CC[C@]12C` [Rh2]: the “direct binding response” value at human 14-3-3 ζ was “significant affinity”.

B1: 14-3-3 ζ protein, P63104 1-245 (natural protein)
chain: MDKNELVQKAKLAEQAERYDDMAACMKSVTEQGAELSNEERNLLSVAYKNVVGARRSSWRVVSSIEQKTEGAEKKQQMAREYREKIETELRDICNDVLSLLEKFLIPNASQAESKVFYLKMKGDYYRYLAEVAAGDDKKGIVDQSQQAYQEAFEISKKEMQPTHPIRLGLALNFSVFYYEILNSPEKACSLAKTAFDEAIAELDTLSEESYKDSTLIMQLLRDNLTLWTSDTQGDEAEAGEGGEN
With B1, the stoichiometry N in assay [1] is 2.
